Reference: patent EP3175850B1, “PHARMACEUTICAL COMPOSITION FOR ALLEVIATING OR TREATING GOUT AND USES THEREOF” (Industrial Technology Research Institute, priority 2014, dated 2016)

Columns and labels:
Type in all cases: in vivo
[1] = test system: leukocyte cell (CD45^+ cells); assay: Mouse air pouch model (MSU crystal-induced acute gouty arthritis): leukocyte cell density in exudate by flow cytometry; conditions: for AVERAGE VALUES (normalized leukocyte cell density): Example 4, Table 2, topical 100 mg paste/mouse (5 mg total active) 15 hours prior to MSU, exudate 5 hours after MSU, blank control 803; for INHIBITION RATE (leukocyte cell density): Example 4, Table 2, vs blank control, topical 100 mg paste/mouse (5 mg total active) 15 hours prior to MSU, 5 hours after MSU
Procedure: (§1) Mouse Air pouch model: this mouse model may be referenced to the methods and the experimental details as in the published article "Role of S100A8 and S100A9 in neutrophil recruitment in response to monosodium urate monohydrate crystals in the air-pouch model of acute gouty arthritis", Arthritis Rheum 2003 Aug, 48(8):2310-20.
(§2) Before the experiment, the mice are shaved to remove back hair. At day 0 sterile filtered air (2 ml/per mouse) is injected through 0.22 µm microfilter to the back of each mouse subcutaneously, so that a pseudosynovial cavity is formed in each mouse. At day 3, an air booster (3 ml/mouse) is again given to each mouse, so that the air pouch is maintained round. Later, the mice are weighed and grouped so that the average weight of the mice in each group is about the same. At day 6 monosodium urate (MSU) crystal suspension (5 mg in 2 ml/per mouse) is injected into the air pouch. Topical application of the paste (100 mg paste/per mouse) is administrated 15 hours prior to MSU stimulation. At a specific time (5 hours) after the injection of MSU, the mice were euthanized with an excess of carbon dioxide, 2 ml PBS per mouse is injected into the air pouch, and the air pouch is carefully cut to collect the exudate. The collected exudate is subjected to the centrifugation at 1,000 rpm, 4°C for 5 minutes, and the supernatant is then placed in a 96-well plate and stored at -20°C. An ELISA kit (purchased from R&D Systems) is used to analyze the contents of IL-1β and IL-6 in the exudate. The precipitate is resuspended and reacted with 1 ml red blood cell lysis buffer (RBC lysis buffer) for one minute to remove the red blood cells, followed by adding 1 ml PBS to terminate the reaction, centrifuged at 1,000 rpm, 25°C for 5 minutes, and the supernatant is discarded. The precipitate is then resuspended in 1 ml PBS as the cell suspension and the cell suspension is filtered by filter membrane (BD Falcon 100 µm Nylon filter strainer) and the filtered cell suspension is dispensed into several tubes (0.25 ml/tube) for subsequent cell counting or for labelling with various differentiation antigen markers (such as cluster of differentiation (CD) markers). The flow cytometry is used for cell counting of the various cells.
(§3) In order to investigate the anti-gout efficacy of AG02-RA1 and AG04-RA1, either used alone or in combination, the experiments are performed to test AG02-RA1 alone, AG04-RA1 alone and the combination(s) of AG02-RA1 :AG04-RA1 in the ratio of 50:50 (Composition Nos. 1, 2 and 3 as shown in Table 1). The total weight of the content of AG02-RA1 and/or AG04-RA1 is 5 mg, accounting for 5 % of the total weight of the test sample paste composition. […]

[2] = test system: neutrophil cell (CD45^+/Ly6G^+ cells); assay: Mouse air pouch model (MSU crystal-induced acute gouty arthritis): neutrophil cell density in exudate by flow cytometry; conditions: Example 4, Table 3; for INHIBITION RATE (neutrophil cell density): CD45^+/Ly6G^+ cells, vs blank control, topical 100 mg paste/mouse (5 mg total active); for AVERAGE VALUES (normalized cell density, neutrophil CD45^+/Ly6G^+ cells): topical 100 mg paste/mouse (5 mg total active) 15 hours prior to MSU, exudate 5 hours after MSU, blank control 360
Procedure: as §1, §2, §3

interleukin-6 (mIL-6) = assay: Mouse air pouch model (MSU crystal-induced): IL-6 content of exudate by ELISA; conditions: Example 4, Figure 4; topical 100 mg paste/mouse (5 mg total active) 15 hours prior to MSU; exudate 5 hours after MSU
Procedure: as §1
(§4) Before the experiment, the mice are shaved to remove back hair. At day 0 sterile filtered air (2 ml/per mouse) is injected through 0.22 µm microfilter to the back of each mouse subcutaneously, so that a pseudosynovial cavity is formed in each mouse. At day 3, an air booster (3 ml/mouse) is again given to each mouse, so that the air pouch is maintained round. Later, the mice are weighed and grouped so that the average weight of the mice in each group is about the same. At day 6 monosodium urate (MSU) crystal suspension (5 mg in 2 ml/per mouse) is injected into the air pouch. Topical application of the paste (100 mg paste/per mouse) is administrated 15 hours prior to MSU stimulation. At a specific time (5 hours) after the injection of MSU, the mice were euthanized with an excess of carbon dioxide, 2 ml PBS per mouse is injected into the air pouch, and the air pouch is carefully cut to collect the exudate. The collected exudate is subjected to the centrifugation at 1,000 rpm, 4°C for 5 minutes, and the supernatant is then placed in a 96-well plate and stored at -20°C. […]

interleukin-1β (mIL-1β) = assay: Mouse air pouch model (MSU crystal-induced): IL-1β content of exudate by ELISA; conditions: Example 4, Figure 3; topical 100 mg paste/mouse (5 mg total active) 15 hours prior to MSU; exudate 5 hours after MSU
Procedure: as §1, §4

| Compound | AVERAGE VALUES (normalized leukocyte cell density) [1] | INHIBITION RATE (leukocyte cell density) [1] | INHIBITION RATE (neutrophil cell density) [2] | AVERAGE VALUES (normalized cell density, neutrophil CD45^+/Ly6G^+ cells) [2] | inhibition rate of interleukin-6 secretion (interleukin-6 (mIL-6)) | inhibition rate of interleukin-1β secretion (interleukin-1β (mIL-1β)) |
| --- | --- | --- | --- | --- | --- | --- |
| CC(=O)OCC=Cc1ccc(OC(C)=O)cc1 [AG04-RA1, 4-(3-acetoxy-propenyl)-phenyl acetate] | 670 cells* 10^3/ml | 17% | 43% | 205 cells*10^3/ml | > 50% | > 50% |
| 3,7,11,15(17)-cembratetraene-16,2:19,6-diolide-3484-37-5(3E,12E)-3,12-dimethyl-8-methylene-6,18-dioxa-tricyclo[14.2.1.0.5,9]nonadeca-3,12,16(19)-triene-7,17-dione [AG02-RA1] | 1609 cells* 10^3/ml | -100% | 63% | 133 cells*10^3/ml | – | – |
